Data as given in patent US12428394B2, “2,4-disubstituted pyrimidine derivative, preparation method therefor and use thereof” (CHENGDU ZENITAR BIOMEDICAL TECHNOLOGY CO., LTD., priority 2019, dated 2025).
pIC50: −log10 of the molar value.

What was measured:
[1] = system: MOLM-13 cells (FLT3-ITD-/+); assay: Inhibition of cell proliferation by MTT experiment, MOLM-13; format: cell-based, human; settings: Homo sapiens, MOLM-13; MTT, 72 h; read-out: IC50 value on cell proliferation inhibition, MOLM-13 FLT3-ITD-/+
Method in brief: (§1)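 MTT assay in MV4-11, MOLM-13 (FLT3-ITD) and SET-2 (JAK2 V617F) cells at 10,000–15,000 cells/well in IMDM with 10% FBS. Cells are exposed to compound for 72 h at 37 °C, then to MTT for 1–3 h. IC50 is fitted from inhibition rates across concentrations.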

JAK2 = biological target: T1, JAK2 (Homo sapiens, UniProt O60674); assay: In vitro kinase activity experiment, JAK2; format: biochemical; settings: for Kinase activity @ 500 nM (%) JAK2: inhibition rate of enzyme at 500 nM, measured by Eurofins
T1 construct: purchased Eurofins
Method in brief: (§2)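 Radiometric filter-binding assay: kinase, its substrate and compound in 8 mM MOPS pH 7.0, 0.2 mM EDTA, 10 mM MnCl2, with 10 mM magnesium acetate and γ33P-ATP; MgATP started the reaction, 40 min at room temperature. Stopped with 3% phosphate, spotted on Filtermat A, washed, scintillation counted.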

SET-2 cells (JAK2 V617F) = assay: Inhibition of cell proliferation by MTT experiment, SET-2; format: cell-based; settings: Homo sapiens, SET-2; MTT, 72 h; read-out: IC50 value on cell proliferation inhibition, SET-2 (V617F)
Method in brief: as §1

JAK1 = biological target: T2, JAK1 (Homo sapiens, UniProt P23458); assay: In vitro kinase activity experiment, JAK1; format: biochemical
T2 construct: purchased Eurofins
Procedure: Buffer solution ([…], pH 7.0, 0.2 mm EDTA, 10 mM mncl2), kinase to be tested, substrate of kinase to be tested, 10 mM magnesium acetate and γ33P-ATP solution, and compounds with different concentrations were added to a reaction tube in turn, then MgATP was added to initiate the enzyme reaction process, and incubated at room temperature for 40 min. Then, the reaction was terminated with 5 μl of […], and 10 μl of the reaction solution was titrated onto the Filtermat A membrane, washed with 75 mM phosphate solution for three times, each time for 5 min., and then washed with methanol once. Finally, the Filtermat A membrane was dried and the scintillation count was carried out.

FLT3 = biological target: T3, FLT3 (Homo sapiens, UniProt P36888); assay: In vitro kinase activity experiment, FLT3; format: biochemical; settings: for inhibition at 0.5 µM: 40 min, inhibition rate of enzyme at 500 nM, measured by Eurofins, read-out: Kinase activity @ 500 nM (%) FLT3
T3 construct: purchased Eurofins
T3 sequence (P36888 27-993): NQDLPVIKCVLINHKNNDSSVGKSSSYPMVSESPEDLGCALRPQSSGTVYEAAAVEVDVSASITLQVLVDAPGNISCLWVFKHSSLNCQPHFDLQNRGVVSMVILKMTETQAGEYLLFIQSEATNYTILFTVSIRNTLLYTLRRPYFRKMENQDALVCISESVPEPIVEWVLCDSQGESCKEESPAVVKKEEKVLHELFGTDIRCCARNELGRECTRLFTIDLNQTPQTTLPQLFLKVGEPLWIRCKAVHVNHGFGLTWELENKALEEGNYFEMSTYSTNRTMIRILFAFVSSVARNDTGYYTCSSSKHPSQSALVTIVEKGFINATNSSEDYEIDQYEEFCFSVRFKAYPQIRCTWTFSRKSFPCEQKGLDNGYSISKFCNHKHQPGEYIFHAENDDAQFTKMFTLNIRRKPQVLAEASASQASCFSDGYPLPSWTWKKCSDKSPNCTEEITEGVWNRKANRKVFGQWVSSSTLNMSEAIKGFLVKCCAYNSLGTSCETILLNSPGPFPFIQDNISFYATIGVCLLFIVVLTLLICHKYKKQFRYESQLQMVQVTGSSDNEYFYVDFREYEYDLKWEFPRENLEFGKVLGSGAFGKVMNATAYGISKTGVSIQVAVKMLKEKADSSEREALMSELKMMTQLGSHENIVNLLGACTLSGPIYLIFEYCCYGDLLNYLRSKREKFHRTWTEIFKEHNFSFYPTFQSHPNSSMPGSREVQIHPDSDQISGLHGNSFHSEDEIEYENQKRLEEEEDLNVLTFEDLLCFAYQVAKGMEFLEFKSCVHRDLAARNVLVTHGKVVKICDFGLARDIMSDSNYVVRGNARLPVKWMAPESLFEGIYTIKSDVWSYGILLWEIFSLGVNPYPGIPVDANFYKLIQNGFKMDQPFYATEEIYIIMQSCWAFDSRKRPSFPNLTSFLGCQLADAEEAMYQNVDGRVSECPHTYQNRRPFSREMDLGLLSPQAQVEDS
Method in brief: as §2

[2] = system: MV4-11 cells (FLT3-ITD+/+); assay: Inhibition of cell proliferation by MTT experiment, MV4-11; format: cell-based, human; settings: Homo sapiens, MV4-11; MTT, 72 h; read-out: IC50 value on cell proliferation inhibition, MV4-11 FLT3-ITD+/+
Method in brief: as §1

T1 sequence (O60674 whole entry): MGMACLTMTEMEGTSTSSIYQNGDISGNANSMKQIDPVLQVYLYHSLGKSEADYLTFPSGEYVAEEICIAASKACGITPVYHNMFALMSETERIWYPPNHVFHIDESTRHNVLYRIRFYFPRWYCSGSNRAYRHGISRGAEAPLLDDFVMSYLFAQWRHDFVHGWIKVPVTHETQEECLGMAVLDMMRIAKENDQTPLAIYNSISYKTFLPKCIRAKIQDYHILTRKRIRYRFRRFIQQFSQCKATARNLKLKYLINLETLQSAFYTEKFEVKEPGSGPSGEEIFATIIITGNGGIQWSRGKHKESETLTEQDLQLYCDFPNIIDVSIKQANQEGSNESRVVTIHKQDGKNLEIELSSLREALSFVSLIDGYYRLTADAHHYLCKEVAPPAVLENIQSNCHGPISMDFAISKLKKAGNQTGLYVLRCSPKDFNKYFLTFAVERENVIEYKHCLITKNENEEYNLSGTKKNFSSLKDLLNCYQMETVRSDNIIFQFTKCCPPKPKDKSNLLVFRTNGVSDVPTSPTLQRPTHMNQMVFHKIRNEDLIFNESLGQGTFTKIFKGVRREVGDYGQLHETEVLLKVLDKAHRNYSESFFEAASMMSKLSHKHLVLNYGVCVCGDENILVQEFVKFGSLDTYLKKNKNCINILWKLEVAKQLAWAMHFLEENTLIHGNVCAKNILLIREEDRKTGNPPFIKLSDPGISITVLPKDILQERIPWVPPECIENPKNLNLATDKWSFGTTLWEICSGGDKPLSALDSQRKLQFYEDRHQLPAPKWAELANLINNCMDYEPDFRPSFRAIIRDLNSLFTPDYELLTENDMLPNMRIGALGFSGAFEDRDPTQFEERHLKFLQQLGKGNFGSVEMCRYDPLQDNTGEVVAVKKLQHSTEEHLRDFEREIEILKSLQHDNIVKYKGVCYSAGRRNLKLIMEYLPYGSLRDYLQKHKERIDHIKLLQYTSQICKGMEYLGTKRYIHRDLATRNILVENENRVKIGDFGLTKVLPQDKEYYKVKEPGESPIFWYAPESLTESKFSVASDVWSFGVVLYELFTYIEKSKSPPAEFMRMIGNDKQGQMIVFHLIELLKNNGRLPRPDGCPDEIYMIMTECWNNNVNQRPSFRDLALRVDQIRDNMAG
T2 sequence (P23458 whole entry): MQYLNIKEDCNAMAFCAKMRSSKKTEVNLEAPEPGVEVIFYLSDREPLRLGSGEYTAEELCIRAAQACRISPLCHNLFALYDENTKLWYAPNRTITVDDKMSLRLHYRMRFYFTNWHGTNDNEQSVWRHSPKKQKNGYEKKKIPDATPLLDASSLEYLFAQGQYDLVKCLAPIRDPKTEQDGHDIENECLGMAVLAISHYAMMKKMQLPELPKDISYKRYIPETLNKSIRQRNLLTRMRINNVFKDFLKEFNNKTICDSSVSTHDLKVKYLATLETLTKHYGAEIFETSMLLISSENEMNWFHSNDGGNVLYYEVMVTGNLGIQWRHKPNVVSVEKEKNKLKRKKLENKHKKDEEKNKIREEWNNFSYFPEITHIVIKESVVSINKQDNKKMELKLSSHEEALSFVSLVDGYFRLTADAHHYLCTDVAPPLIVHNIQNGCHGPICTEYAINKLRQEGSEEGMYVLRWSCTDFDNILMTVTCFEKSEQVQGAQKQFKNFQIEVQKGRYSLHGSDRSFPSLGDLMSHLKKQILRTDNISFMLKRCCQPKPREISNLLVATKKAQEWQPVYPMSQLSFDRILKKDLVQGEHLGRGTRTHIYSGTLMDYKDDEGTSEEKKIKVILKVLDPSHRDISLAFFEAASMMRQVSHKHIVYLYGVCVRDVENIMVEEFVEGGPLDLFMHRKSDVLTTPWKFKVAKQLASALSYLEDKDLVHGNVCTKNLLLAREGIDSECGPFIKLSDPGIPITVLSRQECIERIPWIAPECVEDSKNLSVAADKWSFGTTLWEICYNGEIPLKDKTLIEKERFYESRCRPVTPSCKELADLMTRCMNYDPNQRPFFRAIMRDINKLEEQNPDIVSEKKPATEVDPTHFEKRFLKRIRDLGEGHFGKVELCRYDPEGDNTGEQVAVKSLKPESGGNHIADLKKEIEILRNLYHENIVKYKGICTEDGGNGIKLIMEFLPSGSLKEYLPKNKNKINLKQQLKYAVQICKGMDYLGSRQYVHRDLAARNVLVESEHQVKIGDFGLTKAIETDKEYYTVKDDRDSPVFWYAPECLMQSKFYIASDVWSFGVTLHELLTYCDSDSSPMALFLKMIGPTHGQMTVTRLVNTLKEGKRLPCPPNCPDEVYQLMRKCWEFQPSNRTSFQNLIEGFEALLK

pIC50 [1] | pIC50 (JAK2) | Kinase activity @ 500 nM (%) JAK2 (JAK2) | pIC50 (JAK1) | pIC50 (FLT3) | inhibition at 0.5 µM (FLT3) | pIC50 [2] | SMILES | pIC50 (SET-2 cells (JAK2 V617F))
6.00 to 7.00 | 8.70 | 93% | 7.24 | 8.05 | 72% | 7.00 to 8.00 | Cc1cnc(Nc2ccc(N3CCC(N(C)C)CC3)c(F)c2)nc1-c1cnn(C(C)C)c1 [CLJ-38, 5-methyl-N-(3-fluoro-4-(4-dimethylaminopiperidine-1-yl)phenyl)-4-(1-isopropyl-1H-pyrazole-4-yl) pyrimidine-2-amine] | 6.00 to 7.00
< 6.00 |  | 20% |  |  | 12% | < 6.00 | Cc1cnc(Nc2ccc(CCNC(=O)/C=C/C(=O)c3ccccc3)cc2)nc1-c1cnn(C(C)C)c1 [CLJ-82, N-(4-((4-(1-isopropyl-1H-pyrazole-4-yl)-5-methylpyrimidine-2-yl)amino)phenethyl)-3-benzoyl acrylamide] | < 6.00
7.00 to 8.00 |  | 88% |  |  | 89% | 7.00 to 8.00 | Cc1cnc(Nc2ccc(CNC(=O)CCCN(C)C)cc2)nc1-c1cnn(C(C)C)c1 [CLJ-83, N-(4-((4-(1-isopropyl-1H-pyrazole-4-yl)-5-methylpyrimidine-2-yl)amino)benzyl)-4-dimethylaminobutyramide] | 6.00 to 7.00
6.00 to 7.00 |  | 79% |  |  | 78% | 6.00 to 7.00 | Cc1cnc(Nc2ccc(CCNC(=O)CCCN(C)C)cc2)nc1-c1cnn(C(C)C)c1 [CLJ-84, N-(4-((4-(1-isopropyl-1H-pyrazole-4-yl)-5-methylpyrimidine-2-yl)amino)phenethyl)-4-dimethylaminobutyramide] | 6.00 to 7.00
< 6.00 |  | 56% |  |  | 67% | 6.00 to 7.00 | Cc1cnc(Nc2ccc(CNC(=O)CCl)cc2)nc1-c1cnn(C(C)C)c1 [CLJ-85, N-(4-((4-(1-isopropyl-1H-pyrazole-4-yl)-5-methylpyrimidine-2-yl)amino)benzyl)-2-chloroacetamide] | < 6.00
< 6.00 |  | 37% |  |  | 45% | 6.00 to 7.00 | Cc1cnc(Nc2ccc(CCNC(=O)CCl)cc2)nc1-c1cnn(C(C)C)c1 [CLJ-86, N-(4-((4-(1-isopropyl-1H-pyrazole-4-yl)-5-methylpyrimidine-2-yl)amino)phenethyl)-2-chloroacetamide] | < 6.00
< 6.00 |  | 39% |  |  | 45% | < 6.00 | Cc1cnc(Nc2ccc(CNC(=O)CCCl)cc2)nc1-c1cnn(C(C)C)c1 [CLJ-87, N-(4-((4-(1-isopropyl-1H-pyrazole-4-yl)-5-methylpyrimidine-2-yl)amino)benzyl)-3-chloropropanamide] | < 6.00
< 6.00 |  | 20% |  |  | 32% | < 6.00 | Cc1cnc(Nc2ccc(CCNC(=O)CCCl)cc2)nc1-c1cnn(C(C)C)c1 [CLJ-88, N-(4-((4-(1-isopropyl-1H-pyrazole-4-yl)-5-methylpyrimidine-2-yl)amino)phenethyl)-3-chloropropanamide] | < 6.00
< 6.00 |  | 99% |  |  | 47% | 6.00 to 7.00 | C=CS(=O)(=O)NCc1ccc(Nc2ncc(C)c(-c3cnn(C(C)C)c3)n2)cc1 [CLJ-89] | 7.00 to 8.00
7.00 to 8.00 |  | 97% |  |  | 95% | 7.00 to 8.00 | C=CS(=O)(=O)NCCc1ccc(Nc2ncc(C)c(-c3cnn(C(C)C)c3)n2)cc1 [CLJ-90] | 6.00 to 7.00
7.00 to 8.00 |  | 104% |  |  | 98% | 7.00 to 8.00 | CCS(=O)(=O)c1nn(C(C)C)cc1-c1nc(Nc2ccc(N3CCC(N(C)CCO)CC3)c(F)c2)ncc1C [CLJ-92, 5-methyl-N-(3-fluoro-4-(4-N-hydroxyethyl-4-N-methylaminopiperidine-1-yl)phenyl)-4-(1-isopropyl-3-ethylsulfonyl-1H-pyrazole-4-yl) pyrimidine-2-amine] | 6.00 to 7.00
7.00 to 8.00 |  | 100% |  |  | 97% | 7.00 to 8.00 | Cc1cnc(Nc2ccc(NC(=O)[C@H]3CCCN3)c(F)c2)nc1-c1cnn(C(C)C)c1 [CLJ-93, (R)-2-((2-fluoro-4-((4-(1-isopropyl-1H-pyrazole-4-yl)-5-methylpyrimidine-2-yl)amino)phenyl)carbamoyl) pyrrolidine] | 6.00 to 7.00
6.00 to 7.00 |  | 66% |  |  | 67% | 6.00 to 7.00 | Cc1cnc(Nc2ccc(NS(=O)(=O)c3ccc4c(c3)CC(=O)N4)c(F)c2)nc1-c1cnn(C(C)C)c1 [CLJ-95, N-(2-fluoro-4-((4-(1-isopropyl-1H-pyrazole-4-yl)-5-methylpyrimidine-2-yl)amino)phenyl)-2-oxoindoline-5-sulfonamide] | 6.00 to 7.00
6.00 to 7.00 |  | 73% |  |  | 56% | 6.00 to 7.00 | Cc1cnc(Nc2ccc(NC(=O)[C@H]3CCCN3CC3CC3)c(F)c2)nc1-c1cnn(C(C)C)c1 [CLJ-96, (R)-1-(cyclopropylmethyl)-N-(2-fluoro-4-((4-(1-isopropyl-1H-pyrazole-4-yl)-5-methylpyrimidine-2-yl)amino)phenyl) pyrrolidine-2-carboxamide] | 6.00 to 7.00
7.00 to 8.00 |  | 99% |  |  | 101% | 7.00 to 8.00 | Cc1cnc(Nc2ccc(NC(=O)[C@H]3C[C@H](F)CN3)c(F)c2)nc1-c1cnn(C(C)C)c1 [CLJ-97, (2R,4S)-4-fluoro-N-(2-fluoro-4-((4-(1-isopropyl-1H-pyrazole-4-yl)-5-methylpyrimidine-2-yl)amino)phenyl) pyrrolidine-2-carboxamide] | 6.00 to 7.00
7.00 to 8.00 |  | 97% |  |  | 95% | 7.00 to 8.00 | Cc1cnc(Nc2ccc(NC(=O)CN3CCS(=O)(=O)CC3)c(F)c2)nc1-c1cnn(C(C)C)c1 [CLJ-98, 2-(1,1-dioxthiomorpholine)-N-(2-fluoro-4-((4-(1-isopropyl-1H-pyrazol-4-yl)-5-methylpyrimidine-2-yl)amino)phenyl) acetamide] | 6.00 to 7.00
7.00 to 8.00 |  | 100% |  |  | 97% | 7.00 to 8.00 | Cc1cnc(Nc2ccc(S(=O)(=O)NC3CC3)cc2)nc1-c1cnn(C(C)C)c1 [CLJ-99, N-cyclopropyl-4-((4-(1-isopropyl-1H-pyrazol-4-yl)-5-methylpyrimidine-2-yl)amino) benzenesulfonamide] | 6.00 to 7.00
